For data set [1], the system named is yellow nutsedge (Cyperus esculentus). Description: Test Example 1: foliar spray herbicide effect on yellow nutsedge in greenhouse pots. The format is in vivo. Conditions: evaluated 25 days after treatment, level 0-10. The protocol: (§1) Evaluation of phytotoxicity against a crop was shown by “no” when almost no phytotoxicity was observed, “low” when a low level phytotoxicity was observed, “medium” when a medium level phytotoxicity was observed and “high” when a high level phytotoxicity was observed.
(§2) A plastic pot of 11 cm in diameter and 8 cm in depth was filled with field soil. A tuber of yellow nutsedge (Cyperus esculentus) was planted and grown in a greenhouse for 21 days.
(§3) An emulsion of Compound A-1 was prepared by sufficiently mixing 5 parts of Compound A-1, 6 parts of Sorpol 3005× (surfactant, produced by Toho Chemical) and 89 parts of xylene.
Each of • single use of an emulsion of Compound A-1, • single use of an formulation of Imazethapyr (commercial name: Pursuit, produced by American Cyanamid, containing 24% of imazethapyr), • single use of an formulation of Imazamox (commercial name: Raptur, produced by American Cyanamid, containing 12.1% of imazamox), • a mixed composition of an emulsion of Compound A-1 and an formulation of Imazethapyr, and • a mixed composition of an emulsion of Compound A-1 and an formulation of Imazamox, were diluted with water containing 1% Agri-dex (produced by Helena). Respective dilutions were uniformly sprayed from upper side onto foliages of yellow nutsedge grown as described above with a small sprayer such that the amounts of the active ingredients were the amounts shown in Table 4. Immediately after the treatment with the test compounds, seeds of soybean were sown.
(§4) After the treatment, they were raised in a greenhouse for 25 days and the effect against weeds was evaluated. In addition, after 14 days of the treatment, the phytotoxicity to soybean was evaluated.

Data set [2] has as its system soybean. Description: Test Example 1: phytotoxicity to soybean sown immediately after treatment. Conditions: evaluated after 14 days. The data set is classed as in vivo. The protocol: as §1, §2, §3
Each of • single use of an emulsion of Compound A-1, • single use of an formulation of Imazethapyr (commercial name: Pursuit, produced by American Cyanamid, containing 24% of imazethapyr), • single use of an formulation of Imazamox (commercial name: Raptur, produced by American Cyanamid, containing 12.1% of imazamox), • a mixed composition of an emulsion of Compound A-1 and an formulation of Imazethapyr, and • a mixed composition of an emulsion of Compound A-1 and an formulation of Imazamox, were diluted with water containing 1% Agri-dex (produced by Helena). […]
as §4

Each structure is given as a SMILES string.

As to `CCc1cnc(C2=NC(C)(C(C)C)C(=O)N2)c(C(=O)O)c1` (stereo not drawn) [Imazethapyr, 5-ethyl-2-(4-isopropyl-4-methyl-5-oxo-2-imidazolin-2-yl)nicotinic acid], the results for the “Herbicide Effect yellow nutsedge” value in data set [1] (20 g/ha active ingredient) and in data set [1] (80 g/ha active ingredient) were 1 and 2, respectively.

With `COCc1cnc(C2=NC(C)(C(C)C)C(=O)N2)c(C(=O)O)c1` (stereo not drawn) [Imazamox, 2-(4-isopropyl-4-methyl-5-oxo-2-imidazolin-2-yl)-5-(methoxymethyl)nicotinic acid], the figures for the “Herbicide Effect yellow nutsedge” value in data set [1] (10 g/ha active ingredient) and in data set [1] (40 g/ha active ingredient) were 1 and 2, respectively. In addition, the Phytotoxicity soybean result in data set [2] (10 g/ha active ingredient) and in data set [2] (40 g/ha active ingredient) was “no” throughout.

The values above are taken from US7482307B2, “Herbicide composition” (Sumitomo Chemical Company, Limited, priority 2001, dated 2009).
